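1) Cells in 96-well plates. 2) Compound, 48 h, 5 concentrations. 3) Linear interpolation between surrounding doses. 4) Unreached endpoint = highest concentration. At the GI50, growth is halved.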 Activity calls are given as the source filed them. Rule as the data show it: active = GI50 up to about 1.1 µM and inactive = higher. Where a SMILES comes first, the peptide text is derived from it. The star is where a group is joined. Boc = CC(C)(C)OC(=O)* Bounds are passed on as bounds.

From ChEMBL document CHEMBL1201862, “PubChem BioAssay data set” (2004) come the findings set out here.

Some test systems named below: HCC 2998; HCT-116; HOP-62; NCI-H23; NCI-H522; SF-268; SF-539; SK-MEL-28; CAKI-1; DU-145; Hs-578T; MCF7; MDA-MB-231; MDA-N; NCI/ADR-RES; PC-3; T47D; BT-549.
Common to all, as to test: NCI anticancer screen, dose series, 48 h

Take `O=C1N(C2CCCCC2)CC12CCCCC2`: the GI50 in the assay with HCC 2998, in the assay with HCT-116, in the assay on HOP-62, in the assay on NCI-H23, in the assay with NCI-H522 and with SF-268 was > 100 µM (inactive) in each case. In addition, the GI50 in the assay with SF-539 and with SK-MEL-28 was > 100 µM (inactive) throughout.

As for `COP(C)(=O)/C(Cc1ccccc1)=N\O` (stereo not given), the GI50 in the assay with CAKI-1, in the assay on DU-145, in the assay with HCC 2998, in the assay on HCT-116, with HOP-62 and in the assay on Hs-578T was > 100 µM (inactive) each time. Moreover, the GI50 in the assay on MCF7, with MDA-MB-231, in the assay on MDA-N, in the assay on NCI-H23, in the assay on NCI/ADR-RES and with PC-3 was > 100 µM (inactive) each time. In addition, the GI50 with SK-MEL-28 and in the assay on T47D was > 100 µM (inactive) throughout.

On to `COc1ccc(C(C2C(=O)N(C)C(=O)N(C)C2=O)C(F)(F)C(=O)N(C)C)cc1` (stereo not given), for which the GI50 in the assay with BT-549, with CAKI-1, with DU-145, with HCC 2998, with HCT-116 and with HOP-62 was > 100 µM (inactive) each time. For the same compound, the GI50 in the assay with MCF7, with MDA-MB-231, in the assay on NCI-H23, in the assay with NCI/ADR-RES, in the assay with PC-3 and in the assay on SF-268 was > 100 µM (inactive) throughout. In addition, the GI50 with SF-539, with SK-MEL-28 and in the assay on T47D was > 100 µM (inactive) throughout.

In the case of `O=CNCNCCO`, the GI50 in the assay on BT-549, with CAKI-1, with DU-145, with HCC 2998, in the assay with HCT-116 and in the assay with HOP-62 was > 100 µM (inactive) in each case. The GI50 in the assay on Hs-578T, in the assay with MCF7, in the assay with NCI-H23, in the assay with NCI/ADR-RES, in the assay with SF-268 and in the assay with SK-MEL-28 was > 100 µM (inactive) throughout. Moreover, the GI50 with T47D was > 100 µM (inactive).

With `N#Cc1sc2c(c1OC(=O)c1ccc(Cl)cc1)c(=O)n(-c1ccccc1)c(=S)n2-c1ccccc1`, the GI50 with CAKI-1 is 27.3 µM (inactive); in the assay with DU-145, 25.8 µM (inactive); in the assay on HCC 2998, 21.5 µM (inactive); with HCT-116 it was 15.4 µM (inactive); with HOP-62, 27.7 µM (inactive); in the assay on Hs-578T, 15.6 µM (inactive). Also, the GI50 with MCF7 is 23.1 µM (inactive); in the assay on MDA-MB-231, 32.4 µM (inactive); in the assay on MDA-N, 20.3 µM (inactive); with NCI-H23, 21.7 µM (inactive); in the assay on NCI-H522, 0.504 µM (active); in the assay on NCI/ADR-RES, 23.3 µM (inactive). Moreover, the GI50 is 21.7 µM (inactive) in the assay with PC-3; 23.3 µM (inactive) in the assay with SF-268; 20.8 µM (inactive) in the assay on SF-539; 16.9 µM (inactive) with SK-MEL-28; 24.4 µM (inactive) in the assay with T47D.

`O=C1C(Cl)=C(N2CCSCC2)C(=O)c2c(O)ccc(O)c21`: the GI50 in the assay with CAKI-1 was 0.528 µM (active); in the assay with DU-145, 0.802 µM (active); in the assay with HCT-116 it was 0.307 µM (active); in the assay with Hs-578T, 0.501 µM (active); in the assay with MDA-MB-231, 0.308 µM (active); in the assay on MDA-N it was 0.33 µM (active). Moreover, the GI50 is 0.273 µM (active) with NCI-H23; 0.312 µM (active) in the assay on NCI-H522; 0.1 µM (active) in the assay with NCI/ADR-RES; 0.1 µM (active) in the assay with PC-3; 0.514 µM (active) with SF-268; 0.857 µM (active) in the assay on SK-MEL-28. In addition, in the assay with T47D, the GI50 was 0.662 µM (active).

Turning to `CN1CN(c2ccccc2)C2(CCN(CCCC(=O)c3cccs3)CC2)C1=O`, the GI50 with CAKI-1 is 33.1 µM (inactive); in the assay on DU-145, 36.6 µM (inactive); in the assay on HCC 2998 it was 19.5 µM (inactive); with HCT-116, 30.1 µM (inactive); with HOP-62, 19.3 µM (inactive); with MCF7 it was 25.2 µM (inactive). The GI50 in the assay with MDA-MB-231 is 50.9 µM (inactive); with MDA-N, 68.7 µM (inactive); in the assay on NCI-H23 it was 51.2 µM (inactive); with NCI-H522 it was > 100 µM (inactive); in the assay on NCI/ADR-RES, 41 µM (inactive); with PC-3 it was 94.8 µM (inactive). In addition, the GI50 was 74.8 µM (inactive) in the assay with SF-268, 23.8 µM (inactive) in the assay with SF-539, > 100 µM (inactive) in the assay on SK-MEL-28 and 29 µM (inactive) in the assay with T47D.

For `CCOC(=O)c1cn2c(n1)sc1cc([N+](=O)[O-])ccc12`, the GI50 in the assay on BT-549 is 74.6 µM (inactive); in the assay with CAKI-1, > 100 µM (inactive); in the assay on DU-145, > 100 µM (inactive); in the assay with HCC 2998, > 100 µM (inactive); in the assay with HCT-116, > 100 µM (inactive); in the assay with HOP-62, 37 µM (inactive). Besides, the GI50 was > 100 µM (inactive) with Hs-578T; > 100 µM (inactive) in the assay with MCF7; 38.5 µM (inactive) in the assay with MDA-MB-231; > 100 µM (inactive) with NCI-H23; > 100 µM (inactive) with NCI-H522; > 100 µM (inactive) in the assay with NCI/ADR-RES. Further, the GI50 in the assay with PC-3 was > 100 µM (inactive); in the assay on SF-268, > 100 µM (inactive); with SF-539, 62.7 µM (inactive); with SK-MEL-28, > 100 µM (inactive); in the assay with T47D, > 100 µM (inactive).

Turning to `Cc1ccc(S(=O)(=O)N/N=C2\C=C[C@]3(CC2)C(=O)N(C)c2ccccc23)cc1`, the GI50 in the assay with CAKI-1 is > 100 µM (inactive); with DU-145 it was > 100 µM (inactive); in the assay on HCC 2998, > 100 µM (inactive); with HCT-116, > 100 µM (inactive); with HOP-62, > 100 µM (inactive); with Hs-578T, 98.9 µM (inactive). Also, the GI50 with MCF7, with MDA-MB-231, with MDA-N, in the assay on NCI-H23, with NCI/ADR-RES and in the assay with PC-3 was > 100 µM (inactive) each time. Besides, the GI50 in the assay with SF-268, in the assay on SK-MEL-28 and with T47D was > 100 µM (inactive) in each case.

Turning to `CN(C)Cc1cc(/N=N/c2ccc(Cl)cc2)ccc1OC(=O)c1ccccc1`, the GI50 in the assay with BT-549 is 22.1 µM (inactive); in the assay on DU-145 it was 17 µM (inactive); in the assay with HCC 2998 it was 15.3 µM (inactive); in the assay with HCT-116, 16.4 µM (inactive); with HOP-62, 12.6 µM (inactive); in the assay on Hs-578T it was 16.4 µM (inactive). Also, the GI50 in the assay on MCF7 was 13.2 µM (inactive); in the assay on MDA-MB-231, 14.1 µM (inactive); with MDA-N, 16.5 µM (inactive); in the assay on NCI-H23, 17.8 µM (inactive); with NCI-H522, 12.2 µM (inactive); in the assay with NCI/ADR-RES, 17.7 µM (inactive). Besides, the GI50 with PC-3 was 15.6 µM (inactive); with SF-268, 19.2 µM (inactive); in the assay with SF-539, 18.2 µM (inactive); in the assay on SK-MEL-28 it was 16.1 µM (inactive).

Turning to `CCN(CCO)C(=O)C1(c2ccccc2)CCCCC1`, the GI50 in the assay on CAKI-1, in the assay with DU-145, with HCC 2998, in the assay with HCT-116, with HOP-62 and with Hs-578T was > 10 µM (inactive) throughout. Moreover, the GI50 in the assay on MCF7, in the assay on MDA-MB-231, in the assay on NCI-H23, in the assay on NCI-H522, in the assay on NCI/ADR-RES and with PC-3 was > 10 µM (inactive) in each case. Besides, the GI50 in the assay with SF-268, with SF-539, in the assay with SK-MEL-28 and in the assay with T47D was > 10 µM (inactive) throughout.

For the compound `Cc1cnc2nc(-c3ccc4ccccc4c3)cc(O)c2c1`, the GI50 with BT-549 was > 100 µM (inactive); with DU-145, 0.408 µM (active); in the assay on HCC 2998, 1.4 µM (inactive); in the assay with HOP-62 it was 0.851 µM (active); in the assay on Hs-578T, 0.449 µM (active); with MCF7 it was 0.561 µM (active). Further, the GI50 in the assay with MDA-MB-231 was 1.05 µM (active); in the assay on NCI-H23, 0.434 µM (active); in the assay with NCI-H522, 0.321 µM (active); in the assay with NCI/ADR-RES, 0.349 µM (active); with SF-268, 2.81 µM (inactive); with SF-539 it was 0.391 µM (active). Further, the GI50 in the assay on SK-MEL-28 and in the assay with T47D was > 100 µM (inactive) each time.

As to `COC(=O)[C@H](Cc1ccc(O)cc1)NC(=O)[C@H](Cc1ccc(O)cc1)NC(=O)OC(C)(C)C` (Boc-Tyr-Tyr-OMe), the GI50 in the assay on BT-549 is > 100 µM (inactive); in the assay with CAKI-1, > 100 µM (inactive); in the assay with DU-145 it was > 100 µM (inactive); with HCC 2998 it was 39.4 µM (inactive); in the assay on HCT-116 it was > 100 µM (inactive); with HOP-62 it was > 100 µM (inactive). Moreover, the GI50 in the assay on Hs-578T was > 100 µM (inactive); in the assay with MCF7, 43.8 µM (inactive); in the assay with MDA-MB-231, 60 µM (inactive); with MDA-N it was > 100 µM (inactive); with NCI-H23, > 100 µM (inactive); in the assay on NCI-H522, 28 µM (inactive). Further, the GI50 is > 100 µM (inactive) with NCI/ADR-RES, > 100 µM (inactive) in the assay on PC-3, > 100 µM (inactive) with SF-268 and 82.2 µM (inactive) in the assay on SF-539.
